From the CheMixHub viscosity set

Assay: xn = mol fraction of the nth substance listed

CC(CC(C)(C)C)CP(=O)(O)CC(C)CC(C)(C)C (centres undefined) + ClCCCl
298.15 K, 101 kPa
Details | viscosity [mPa·s]
x1 = 0.0052 | 0.825
x1 = 0.0094 | 0.891
x1 = 0.0107 | 0.931
x2 = 0.0747 | 93.3
x2 = 0.1457 | 79.06
x2 = 0.2376 | 61.57
x2 = 0.3715 | 42.12
x2 = 0.568 | 20.09
x2 = 0.7166 | 9.021
x2 = 0.8017 | 5.212
x2 = 0.8105 | 4.99
x2 = 0.8887 | 2.678
x2 = 0.8942 | 2.603
x2 = 0.9417 | 1.597
x2 = 0.9439 | 1.578
x2 = 0.9767 | 1.087

CCOCCO + CCCCOC(C)=O
298.15 K, 101 kPa
Details | viscosity [mPa·s]
x1 = 0.0826 | 0.6948
x1 = 0.1249 | 0.7087
x1 = 0.1454 | 0.7178
x1 = 0.2182 | 0.7512
x1 = 0.3951 | 0.8537
x1 = 0.4691 | 0.9144
x1 = 0.502 | 0.9435
x1 = 0.5174 | 0.9569
x1 = 0.5604 | 0.9991
x1 = 0.6488 | 1.101
x1 = 0.7547 | 1.258
x1 = 0.7674 | 1.276
x1 = 0.7794 | 1.296
x1 = 0.9079 | 1.564
x1 = 0.9531 | 1.676
x1 = 0.9678 | 1.72

CNC(C)=O + CCO
303.15 K, 101 kPa
Details | viscosity [mPa·s]
x1 = 0.1049 | 1.108
x1 = 0.2021 | 1.237
x1 = 0.3699 | 1.52
x1 = 0.4024 | 1.584
x1 = 0.5109 | 1.833
x1 = 0.6023 | 2.084
x1 = 0.6979 | 2.402
x1 = 0.7994 | 2.792
x1 = 0.895 | 3.236

CNC(C)=O + Cc1ccccc1
308.15 K, 101.33 kPa
Details | viscosity [mPa·s]
x1 = 0.0366 | 0.4848
x1 = 0.1983 | 0.7283
x1 = 0.3436 | 1.012
x1 = 0.4518 | 1.26
x1 = 0.5799 | 1.582
x1 = 0.6965 | 1.936
x1 = 0.7868 | 2.28
x1 = 0.8882 | 2.718
x2 = 0.0175 | 3.188

CC(C)CCO + CCCCO
298.15 K, 101 kPa
Details | viscosity [mPa·s]
x2 = 0.1033 | 3.62
x2 = 0.204 | 3.472
x2 = 0.2977 | 3.343
x2 = 0.4026 | 3.211
x2 = 0.5005 | 3.093
x2 = 0.6046 | 2.972
x2 = 0.6996 | 2.851
x2 = 0.8015 | 2.746
x2 = 0.9172 | 2.615
